# Patent US20250163119A1, “COMPOUNDS FOR THE TREATMENT OF DIABETES OR OBESITY” (Eli Lilly and Company, priority 2023, published 2025)
# Several values for one entry are separate records, joined by “and”; a condition that tells them apart may be missing. Equal entries are not always repeated. *1 amine or outer side, *2 acyl side, *3 side chain or, on linkers, in order; H or OH if unused. Side-chain parts run from the residue outwards. [ ]: non-standard residue; d: D form. The star is where a group is joined. C20 diacid = O=C(O)CCCCCCCCCCCCCCCCCCC(=O)*; γGlu = O=C(O)[C@H](CCC(=O)[*:2])N[*:1]; εLys = N[C@@H](CCCCN[*:1])C(=O)[*:2]; pGlu = O=C1CC[C@@H](C(=O)O)N1; αMeL = CC(C)C[C@](C)(N)C(=O)O; AEEA = NCCOCCOCC(=O)O; Aib = CC(C)(N)C(=O)O
# How the values were obtained:
# [1] = Pharmacokinetics in Yucatan mini-pigs, single subcutaneous or intravenous dose; assay type: in vivo
# In short: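 Male mini-pigs received one SC or IV dose (19 or 99 nmol/kg) in 40 mM Tris-HCl 5% D-mannitol, pH 8. Blood sampled 0.083 (IV only) to 504 h postdose. Plasma levels measured by LC/MS after extraction and SPE, Orbitrap detection.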
# [2] = system: pre-existing antibodies (ADA) in treatment-naive normal human serum; experiment: Pre-existing reactivity (ACE assay format); assay type: binding; details: ACE assay format
# Procedure: This assay assessed the presence of pre-existing antibodies (ADA) against the tested molecules in treatment-naive normal human serum (NHS). Diluted NHS was incubated overnight on a Pierce Streptavidin plate coated with biotinylated tested molecules. On the following day, the captured binding proteins were acid eluted, hard-coated to a Mesoscale (MSD) plate, and detected with a combination of biotin-labeled molecule and ruthenium-labeled streptavidin. If anti-drug antibodies were present, they would bind the labeled drug and the resulting signal was referred to as Tier 1 signal (expressed as electrochemiluminescence). […] The presence of pre-existing anti-drug antibodies was expressed as magnitude of the 90th percentile of Tier 2 inhibition. The 90th percentile of Tier 2 inhibition is a statistical tool to assess the magnitude of specificity of Tier 1 reactivity. This 90th percentile was used to rank molecules in terms of ADA risk.
# [3] = Pharmacokinetics in Sprague Dawley rats, single subcutaneous or intravenous dose (incl. 10, 30, 100 nmol/kg dose response); assay type: in vivo
# [4] = system: CD4+ T cells; experiment: T cell proliferation assay; assay type: cell-based, human; details: responding donors / donors tested
# Procedure: This assay assessed the ability of tested antibodies or tested MAPPS peptides to activate CD4+ T cells by inducing cellular proliferation. CD8+ T cell depleted PBMC's were prepared and labeled with CFSE. Each sample was tested with media control, keyhole limpet haemocyanin (KLH; positive clinical benchmark control), tested antibodies, or tested MAPPS peptides. Cultures were incubated for 7 days. On day 7, samples were analyzed by flow cytometry.
# [5] = system: MHC-II presented peptides on human dendritic cells; experiment: MAPPS assay (MHC-Associated Peptide Proteomics); assay type: cell-based
# In short: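 Peptides eluted from anti-MHC-II immunoprecipitates of day-6 DC lysates were sequenced by MS, mapped onto the parent test molecule, and scored as percentage of donors presenting each region. DCs derived from donor CD14+ cells (IL-4, GM-CSF) received test molecules on day 4, then LPS maturation on day 5.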
# [6] = male Yucatan pigs, single subcutaneous dose 18 nmol/kg, individual animal
# [7] = male, Yucatan mini-pig, minipig, plasma, iv, 18 nmol/kg, single intravenous dose 18 nmol/kg, individual animal
# [8] = male, Yucatan mini-pig, minipig, plasma, iv, 18 nmol/kg, single intravenous dose 18 nmol/kg, mean
# [9] = single intravenous dose 18 nmol/kg, male Yucatan pigs, individual animal
# [10] = dose response, single subcutaneous dose 10 nmol/kg, male Sprague Dawley rats, individual animal
# [11] = dose response, single subcutaneous dose 30 nmol/kg, male Sprague Dawley rats, individual animal
# [12] = dose response, single subcutaneous dose 100 nmol/kg, male Sprague Dawley rats, individual animal
# [13] = male Sprague Dawley rats, single intravenous dose 183 nmol/kg, individual animal
# [14] = male, Sprague Dawley, rat, plasma, iv, 183 nmol/kg, single intravenous dose 183 nmol/kg, Mean
# [15] = male, Sprague Dawley, rat, plasma, iv, 183 nmol/kg, single intravenous dose 183 nmol/kg, individual animal
# [16] = single subcutaneous dose 183 nmol/kg, male Sprague Dawley rats, individual animal
substance,measurement,setting,value
"[pGlu]GSPSGIVTS[αMeL]DVPT[Aib][αMeL]LQKILEQERAEKARQQAK([γGlu-AEEA-εLys-C20 diacid])EAAEILAQV-NH2 [SEQ ID NO: 22, Pyr-GSPSGIVTS αMeL DVPT Aib αMeL LQKILEQERAEKARQQAK(γE-(2-[2-(2-Amino-ethoxy)-ethoxy]-acetyl)-ϵK-CO-(CH2)18-CO2H)EAAEILAQV-NH2]",AUC0-inf,"[1]; Yucatan mini-pig, minipig, plasma, sc, male Yucatan pigs, single subcutaneous dose 18 nmol/kg, Mean, read-out: AUC0-inf",22.5 µM·h
same,Cmax,"[1]; Yucatan mini-pig, minipig, plasma, sc, male Yucatan pigs, single subcutaneous dose 18 nmol/kg, Mean, read-out: Cmax",154 nM
same,AUC0-inf,[1]; [6],23.9 µM·h and 21 µM·h
same,CL/F,[1]; [6],0.886 mL/h/kg
same,Cmax,[1]; [6],165 nM and 143 nM
same,T1/2,[1]; [6],85.8 h
same,Tmax,[1]; [6],6.0 h
same,clearance,[1]; [7],0.82 mL/h/kg
same,half-life,[1]; [7],90.1 h
same,clearance,[1]; [8],0.733 mL/h/kg
same,half-life,[1]; [8],95.6 h
same,half-life,"[1]; male, Yucatan mini-pig, minipig, plasma, sc, 18 nmol/kg, single subcutaneous dose 18 nmol/kg, Mean",82.5 h
same,CL/F,"[1]; male, Yucatan mini-pig, minipig, plasma, sc, 18 nmol/kg, single subcutaneous dose 18 nmol/kg, Mean, read-out: CL/F (converted)",0.832 mL/h/kg
same,Tmax,"[1]; male, Yucatan mini-pig, minipig, plasma, sc, 18 nmol/kg, single subcutaneous dose 18 nmol/kg, Mean, read-out: Tmax",15 h
same,half-life,"[1]; male, Yucatan mini-pig, minipig, plasma, sc, 18 nmol/kg, single subcutaneous dose 18 nmol/kg, individual animal",79.1 h
same,CL/F,"[1]; male, Yucatan mini-pig, minipig, plasma, sc, 18 nmol/kg, single subcutaneous dose 18 nmol/kg, individual animal, read-out: CL/F (converted)",0.777 mL/h/kg
same,AUC0-inf,"[1]; minipig, plasma, single intravenous dose 18 nmol/kg, male Yucatan pigs, mean, read-out: AUC0-inf",25.3 µM·h
same,C0,"[1]; minipig, plasma, single intravenous dose 18 nmol/kg, male Yucatan pigs, mean, read-out: C0",418 nM
same,AUC0-inf,[1]; [9],22.3 µM·h and 28.3 µM·h
same,C0,[1]; [9],373 nM and 462 nM
same,CL,[1]; [9],0.646 mL/h/kg
same,T1/2,[1]; [9],101 h
same,Pre-existing Reactivity 90th percentile T2 inhibition >50 donors,[2],14.3%
same,AUC0-inf,[3]; [10],2.73 µM·h and 2.81 µM·h and 3.02 µM·h
same,CL/F,[3]; [10],3.60 mL/h/kg and 3.54 mL/h/kg
same,Cmax,[3]; [10],49.5 nM and 51.3 nM and 48.6 nM
same,T1/2,[3]; [10],23.1 h and 41.5 h
same,AUC0-inf,[3]; [11],7.52 µM·h and 8.6 µM·h and 7.16 µM·h
same,CL/F,[3]; [11],3.62 mL/h/kg and 4.25 mL/h/kg
same,Cmax,[3]; [11],126 nM and 132 nM and 128 nM
same,T1/2,[3]; [11],33.6 h and 24.1 h
same,AUC0-inf,[3]; [12],26.7 µM·h and 26 µM·h and 26.3 µM·h
same,CL/F,[3]; [12],3.91 mL/h/kg
same,Cmax,[3]; [12],372 nM and 416 nM and 369 nM
same,T1/2,[3]; [12],25.9 h and 30.7 h
same,AUC0-inf,[3]; [13],88.4 µM·h and 79.6 µM·h and 92.3 µM·h
same,C0,[3]; [13],3240 nM and 5390 nM and 5200 nM
same,CL,[3]; [13],2.30 mL/h/kg and 1.98 mL/h/kg
same,T1/2,[3]; [13],21.3 h and 22.9 h
same,clearance,[3]; [14],2.12 mL/h/kg
same,half-life,[3]; [14],23 h
same,clearance,[3]; [15],2.07 mL/h/kg
same,half-life,[3]; [15],24.7 h
same,half-life,"[3]; male, Sprague Dawley, rat, plasma, sc, 10 nmol/kg, dose response, single subcutaneous dose 10 nmol/kg, individual animal",30.4 h
same,CL/F,"[3]; male, Sprague Dawley, rat, plasma, sc, 10 nmol/kg, dose response, single subcutaneous dose 10 nmol/kg, individual animal, read-out: CL/F (converted)",3.75 mL/h/kg
same,Tmax,"[3]; male, Sprague Dawley, rat, plasma, sc, 10 nmol/kg, dose response, single subcutaneous dose 10 nmol/kg, individual animal, read-out: Tmax",24 h
same,half-life,"[3]; male, Sprague Dawley, rat, plasma, sc, 10 nmol/kg, dose response, single subcutaneous dose 10 nmol/kg, mean",31.7 h
same,CL/F,"[3]; male, Sprague Dawley, rat, plasma, sc, 10 nmol/kg, dose response, single subcutaneous dose 10 nmol/kg, mean, read-out: CL/F (converted)",3.63 mL/h/kg
same,Tmax,"[3]; male, Sprague Dawley, rat, plasma, sc, 10 nmol/kg, dose response, single subcutaneous dose 10 nmol/kg, mean, read-out: Tmax",24 h
same,half-life,"[3]; male, Sprague Dawley, rat, plasma, sc, 30 nmol/kg, dose response, single subcutaneous dose 30 nmol/kg, individual animal",27.4 h
same,CL/F,"[3]; male, Sprague Dawley, rat, plasma, sc, 30 nmol/kg, dose response, single subcutaneous dose 30 nmol/kg, individual animal, read-out: CL/F (converted)",4.07 mL/h/kg
same,Tmax,"[3]; male, Sprague Dawley, rat, plasma, sc, 30 nmol/kg, dose response, single subcutaneous dose 30 nmol/kg, individual animal, read-out: Tmax",24 h
same,half-life,"[3]; male, Sprague Dawley, rat, plasma, sc, 30 nmol/kg, dose response, single subcutaneous dose 30 nmol/kg, mean",28.4 h
same,CL/F,"[3]; male, Sprague Dawley, rat, plasma, sc, 30 nmol/kg, dose response, single subcutaneous dose 30 nmol/kg, mean, read-out: CL/F (converted)",3.98 mL/h/kg
same,Tmax,"[3]; male, Sprague Dawley, rat, plasma, sc, 30 nmol/kg, dose response, single subcutaneous dose 30 nmol/kg, mean, read-out: Tmax",24 h
same,half-life,"[3]; male, Sprague Dawley, rat, plasma, sc, 100 nmol/kg, dose response, single subcutaneous dose 100 nmol/kg, individual animal",28.6 h
same,CL/F,"[3]; male, Sprague Dawley, rat, plasma, sc, 100 nmol/kg, dose response, single subcutaneous dose 100 nmol/kg, individual animal, read-out: CL/F (converted)",3.85 mL/h/kg
same,Tmax,"[3]; male, Sprague Dawley, rat, plasma, sc, 100 nmol/kg, dose response, single subcutaneous dose 100 nmol/kg, individual animal, read-out: Tmax",24 h
same,half-life,"[3]; male, Sprague Dawley, rat, plasma, sc, 100 nmol/kg, dose response, single subcutaneous dose 100 nmol/kg, mean",28.4 h
same,CL/F,"[3]; male, Sprague Dawley, rat, plasma, sc, 100 nmol/kg, dose response, single subcutaneous dose 100 nmol/kg, mean, read-out: CL/F (converted)",3.89 mL/h/kg
same,Tmax,"[3]; male, Sprague Dawley, rat, plasma, sc, 100 nmol/kg, dose response, single subcutaneous dose 100 nmol/kg, mean, read-out: Tmax",24 h
same,half-life,"[3]; male, Sprague Dawley, rat, plasma, sc, 183 nmol/kg, single subcutaneous dose 183 nmol/kg, individual animal",26.2 h
same,CL/F,"[3]; male, Sprague Dawley, rat, plasma, sc, 183 nmol/kg, single subcutaneous dose 183 nmol/kg, individual animal, read-out: CL/F (converted)",4.75 mL/h/kg
same,Tmax,"[3]; male, Sprague Dawley, rat, plasma, sc, 183 nmol/kg, single subcutaneous dose 183 nmol/kg, individual animal, read-out: Tmax",24 h
same,half-life,"[3]; male, Sprague Dawley, rat, plasma, sc, 183 nmol/kg, single subcutaneous dose 183 nmol/kg, mean",23.8 h
same,CL/F,"[3]; male, Sprague Dawley, rat, plasma, sc, 183 nmol/kg, single subcutaneous dose 183 nmol/kg, mean, read-out: CL/F (converted)",5.04 mL/h/kg
same,Tmax,"[3]; male, Sprague Dawley, rat, plasma, sc, 183 nmol/kg, single subcutaneous dose 183 nmol/kg, mean, read-out: Tmax",32 h
same,AUC0-inf,"[3]; rat, plasma, sc, dose response, single subcutaneous dose 10 nmol/kg, male Sprague Dawley rats, mean, read-out: AUC0-inf",2.85 µM·h
same,Cmax,"[3]; rat, plasma, sc, dose response, single subcutaneous dose 10 nmol/kg, male Sprague Dawley rats, mean, read-out: Cmax",49.8 nM
same,AUC0-inf,"[3]; rat, plasma, sc, dose response, single subcutaneous dose 30 nmol/kg, male Sprague Dawley rats, mean, read-out: AUC0-inf",7.76 µM·h
same,Cmax,"[3]; rat, plasma, sc, dose response, single subcutaneous dose 30 nmol/kg, male Sprague Dawley rats, mean, read-out: Cmax",129 nM
same,AUC0-inf,"[3]; rat, plasma, sc, dose response, single subcutaneous dose 100 nmol/kg, male Sprague Dawley rats, mean, read-out: AUC0-inf",26.3 µM·h
same,Cmax,"[3]; rat, plasma, sc, dose response, single subcutaneous dose 100 nmol/kg, male Sprague Dawley rats, mean, read-out: Cmax",386 nM
same,AUC0-inf,"[3]; rat, plasma, sc, single subcutaneous dose 183 nmol/kg, male Sprague Dawley rats, mean, read-out: AUC0-inf",36.8 µM·h
same,Cmax,"[3]; rat, plasma, sc, single subcutaneous dose 183 nmol/kg, male Sprague Dawley rats, mean, read-out: Cmax",583 nM
same,AUC0-inf,"[3]; rat, plasma, male Sprague Dawley rats, single intravenous dose 183 nmol/kg, Mean, read-out: AUC0-inf",86.8 µM·h
same,C0,"[3]; rat, plasma, male Sprague Dawley rats, single intravenous dose 183 nmol/kg, Mean, read-out: C0",4610 nM
same,AUC0-inf,[3]; [16],38.9 µM·h and 34.3 µM·h and 37.1 µM·h
same,CL/F,[3]; [16],5.39 mL/h/kg and 4.99 mL/h/kg
same,Cmax,[3]; [16],783 nM and 439 nM and 527 nM
same,T1/2,[3]; [16],21.8 h and 23.5 h
same,Tmax,[3]; [16],48 h
same,T Cell Proliferation Assay: protein 7-10 donors with diverse MHC,[4],0/9
same,MAPPS Assay >10 donors with diverse MHC,[5]; donors displaying MHC-II peptides / donors tested,1/10
same,peptides displayed on MHC-II complexes,[5]; human dendritic cells from normal donors,at least one peptide cluster on MHC-II complexes in a subset of donors
same,immunogenicity compared with SEQ ID NO:54,[5]; in the MAPPs assay and/or the T cell proliferation assay,substantial improvements in immunogenicity over a compound comprising SEQ ID NO:54
same,MAPPS Assay >10 donors with diverse MHC,[5]; percentage of donors displaying MHC-II peptides,10%
